We go through twelve compounds from PubChem BioAssay (NCI).

Among the test systems are A549 NSCLC; U251 CNS; EKVX NSCLC; SNB-19 CNS; SF-268 CNS; SK-MEL-5 melanoma; MDA-N; LOX IMVI melanoma; SK-MEL-2 melanoma; MDA-MB-435; SW-620 colon; HCT-15 colon; HOP-92 NSCLC; SR leukemia; HOP-62 NSCLC; TK-10 renal; NCI-H226 lung; SNB-75 CNS; COLO 205 colon; NCI/ADR-RES ovarian.
Assay in all cases: NCI-60 cell line screen, 48 h

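Method: 48-hour compound exposure of cells in 96-well plates, five concentrations, linear interpolation of endpoints. TGI: total growth inhibition.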 Where a SMILES comes first, the peptide text is derived from it. The star is where a group is joined. OSu = O=C1CCC(=O)N1O* Where only a bound is given, the exact number is not on record here.

Take `C=CCCC(=O)C(=[N+]=[N-])C(=O)CCC(=O)c1ccccc1`: the TGI in the assay with A549 NSCLC, in the assay with U251 CNS, with EKVX NSCLC, with SNB-19 CNS, in the assay on SF-268 CNS and in the assay on SK-MEL-5 melanoma was > 10 µM throughout. Further, the TGI with MDA-N, with LOX IMVI melanoma, in the assay on SK-MEL-2 melanoma, in the assay with MDA-MB-435, in the assay on SW-620 colon and in the assay on HCT-15 colon was > 10 µM in each case. For the same compound, the TGI in the assay on HOP-92 NSCLC, with SR leukemia, in the assay with HOP-62 NSCLC, in the assay with TK-10 renal, in the assay on NCI-H226 lung and in the assay with SNB-75 CNS was > 10 µM each time.
Take `CC12CCC(CC1(Cl)Cl)C2` (stereo not given): the TGI in the assay with A549 NSCLC, in the assay on COLO 205 colon, with U251 CNS, in the assay on EKVX NSCLC, with SNB-19 CNS and in the assay on NCI/ADR-RES ovarian was > 100 µM each time. Also, the TGI in the assay on SF-268 CNS, in the assay with SK-MEL-5 melanoma, in the assay on LOX IMVI melanoma, in the assay with SK-MEL-2 melanoma, in the assay with MDA-MB-435 and in the assay with SW-620 colon was > 100 µM in each case. The TGI with HCT-15 colon, in the assay on HOP-92 NSCLC, with SR leukemia, with HOP-62 NSCLC, with TK-10 renal and in the assay on NCI-H226 lung was > 100 µM each time. Further, the TGI in the assay on SNB-75 CNS is > 100 µM.
Take `Cc1ccc(S(=O)(=O)NC(=O)NC(CCC(N)=O)C(=O)O)cc1` (stereo not given): the TGI with A549 NSCLC, in the assay on COLO 205 colon, in the assay on U251 CNS, in the assay with SNB-19 CNS, in the assay with NCI/ADR-RES ovarian and in the assay on SF-268 CNS was > 100 µM each time. Besides, the TGI in the assay on SK-MEL-5 melanoma, in the assay with MDA-N, with LOX IMVI melanoma, in the assay with SK-MEL-2 melanoma, in the assay on SW-620 colon and in the assay with HCT-15 colon was > 100 µM each time. The TGI with HOP-92 NSCLC, with SR leukemia, in the assay on HOP-62 NSCLC, in the assay on TK-10 renal and in the assay with SNB-75 CNS was > 100 µM in each case.
As to `O=C1C(Cl)=C(NCCF)C(=O)c2ncccc21`, the TGI in the assay on A549 NSCLC turned out to be 4.07 µM; with U251 CNS, 2.8 µM; with EKVX NSCLC it was 3.08 µM; in the assay with SNB-19 CNS, 2.99 µM; in the assay on SF-268 CNS, 4.22 µM; in the assay on SK-MEL-5 melanoma, 2.56 µM. For the same compound, the TGI in the assay on MDA-N was 0.392 µM; in the assay on LOX IMVI melanoma, 2.26 µM; with SK-MEL-2 melanoma, 4.23 µM; in the assay on MDA-MB-435, 0.408 µM; with SW-620 colon it was 3.35 µM; in the assay on HCT-15 colon, 4.87 µM. Moreover, the TGI in the assay on SR leukemia was > 10 µM; in the assay on HOP-62 NSCLC, 4.39 µM; with TK-10 renal it was 3.65 µM; in the assay on NCI-H226 lung, 3.99 µM; with SNB-75 CNS, 2.6 µM.
In the case of `COC(=O)C1(O)C(c2ccccc2)NC2(C)CCCC21` (stereo not given), the TGI in the assay with A549 NSCLC, in the assay on COLO 205 colon, in the assay with U251 CNS, in the assay on SNB-19 CNS, in the assay on NCI/ADR-RES ovarian and with SF-268 CNS was > 100 µM in each case. For the same compound, the TGI in the assay on SK-MEL-5 melanoma, with MDA-N, with LOX IMVI melanoma, with SK-MEL-2 melanoma, with MDA-MB-435 and with SW-620 colon was > 100 µM each time. The TGI in the assay on HCT-15 colon, in the assay on HOP-62 NSCLC, with TK-10 renal, in the assay with NCI-H226 lung and in the assay with SNB-75 CNS was > 100 µM in each case.
With `CN(C)c1ccc(/C=C(\NC(=O)c2ccccc2)C(=O)NC(Cc2c[nH]c3ccccc23)C(=O)O)cc1` (stereo not given), the TGI with A549 NSCLC, in the assay on COLO 205 colon, in the assay on U251 CNS, with EKVX NSCLC, with SNB-19 CNS and with NCI/ADR-RES ovarian was > 100 µM throughout. Also, the TGI in the assay on SF-268 CNS, in the assay on SK-MEL-5 melanoma, with MDA-N, with LOX IMVI melanoma, in the assay with SK-MEL-2 melanoma and in the assay on MDA-MB-435 was > 100 µM in each case. Moreover, the TGI in the assay with SW-620 colon, in the assay with HCT-15 colon, with HOP-92 NSCLC, in the assay with HOP-62 NSCLC, in the assay with TK-10 renal and in the assay on NCI-H226 lung was > 100 µM in each case. For the same compound, in the assay with SNB-75 CNS, the TGI was determined as 33.1 µM.
For `COCOc1cc(OC)ccc1C/C(=N/O)C(=O)OC`, the TGI in the assay with A549 NSCLC, with COLO 205 colon, with U251 CNS, in the assay on EKVX NSCLC, in the assay on SNB-19 CNS and in the assay on NCI/ADR-RES ovarian was > 100 µM in each case. Moreover, the TGI in the assay on SF-268 CNS, with SK-MEL-5 melanoma, in the assay on MDA-N, in the assay on LOX IMVI melanoma, in the assay on SK-MEL-2 melanoma and with MDA-MB-435 was > 100 µM in each case. Also, the TGI with SW-620 colon was > 100 µM; in the assay on HCT-15 colon it was > 100 µM; with HOP-62 NSCLC, > 100 µM; with TK-10 renal, > 100 µM; in the assay on NCI-H226 lung it was > 100 µM; with SNB-75 CNS, 74.4 µM.
Consider `CC(=O)NC1(C)C(C)C2CC1C(C)C2(C)C` (stereo not given), for which the TGI with A549 NSCLC, with COLO 205 colon, in the assay on U251 CNS, in the assay on EKVX NSCLC, in the assay with SNB-19 CNS and with SF-268 CNS was > 100 µM in each case. For the same compound, the TGI in the assay on SK-MEL-5 melanoma, in the assay on MDA-N, with MDA-MB-435, in the assay with SW-620 colon, in the assay with HOP-92 NSCLC and in the assay with SR leukemia was > 100 µM each time. Besides, the TGI in the assay with HOP-62 NSCLC, with TK-10 renal, with NCI-H226 lung and in the assay with SNB-75 CNS was > 100 µM throughout.
`COc1ccc2c3c1OC1C(OC)(OC)CC4(C=C2)CN(C)CCC314` (stereo not given): the TGI in the assay on A549 NSCLC, in the assay with COLO 205 colon, in the assay with U251 CNS, in the assay on EKVX NSCLC, with SNB-19 CNS and in the assay on NCI/ADR-RES ovarian was > 100 µM throughout. Besides, the TGI in the assay on SF-268 CNS, with SK-MEL-5 melanoma, in the assay with MDA-N, with LOX IMVI melanoma, in the assay on MDA-MB-435 and in the assay with SW-620 colon was > 100 µM each time. Besides, the TGI with HCT-15 colon, in the assay on HOP-62 NSCLC, in the assay on TK-10 renal, with NCI-H226 lung and with SNB-75 CNS was > 100 µM throughout.
With `O=c1[nH]c(=O)n([C@@H]2O[C@H](CO)[C@@H](O)[C@@H]2F)cc1I`, the TGI in the assay with A549 NSCLC, in the assay on COLO 205 colon, in the assay on U251 CNS, with EKVX NSCLC, with SNB-19 CNS and in the assay on NCI/ADR-RES ovarian was > 100 µM throughout. Further, the TGI in the assay on SF-268 CNS, in the assay on SK-MEL-5 melanoma, with MDA-N, with LOX IMVI melanoma, with MDA-MB-435 and in the assay with SW-620 colon was > 100 µM in each case. The TGI in the assay on HCT-15 colon, in the assay on HOP-92 NSCLC, with HOP-62 NSCLC, in the assay on TK-10 renal, in the assay with NCI-H226 lung and in the assay on SNB-75 CNS was > 100 µM throughout.
For the compound `NCCCCC(NC(=O)C(N)Cc1ccc(O)cc1)C(=O)NC(Cc1ccc(O)cc1)C(=O)NC(CCCCN)C(=O)ON1C(=O)CCC1=O` (stereo not given) (H-YKYK-OSu; configuration not given here), the TGI in the assay with A549 NSCLC, in the assay with COLO 205 colon, with U251 CNS, in the assay on EKVX NSCLC, in the assay on SNB-19 CNS and with SK-MEL-5 melanoma was > 100 µM each time. Also, the TGI in the assay on MDA-N, with SK-MEL-2 melanoma, in the assay with SW-620 colon, with HCT-15 colon, in the assay on HOP-92 NSCLC and in the assay with SR leukemia was > 100 µM in each case. Further, the TGI with HOP-62 NSCLC, with TK-10 renal, in the assay with NCI-H226 lung and with SNB-75 CNS was > 100 µM throughout.
In the case of `O=C(NC1(C(=O)O)CCCC1)c1ccccc1`, the TGI in the assay on A549 NSCLC, in the assay on COLO 205 colon, in the assay on U251 CNS, in the assay on EKVX NSCLC, in the assay on SNB-19 CNS and in the assay on NCI/ADR-RES ovarian was > 100 µM throughout. The TGI with SF-268 CNS, in the assay on SK-MEL-5 melanoma, in the assay with MDA-N, in the assay with LOX IMVI melanoma, in the assay with SK-MEL-2 melanoma and in the assay with MDA-MB-435 was > 100 µM throughout. For the same compound, the TGI in the assay on SW-620 colon, with HCT-15 colon, in the assay with HOP-92 NSCLC, in the assay on HOP-62 NSCLC, with TK-10 renal and in the assay on NCI-H226 lung was > 100 µM throughout.
